Patent US20230272010A1, “ANTIBACTERIAL SYNTHETIC-BIOINFORMATIC NATURAL PRODUCTS AND USES THEREOF” (The Rockefeller University, priority 2020, published 2023)
≈ marks a conversion by molar mass, not a printed value. Residues, ends and D or L forms follow the SMILES beside them.

Key:
P. aeruginosa = experiment: MIC determination by broth microdilution; format: cell-based, Pseudomonas aeruginosa
A. baumannii = experiment: MIC determination by broth microdilution; format: cell-based, Acinetobacter baumannii
E. coli DH5α = experiment: MIC determination by broth microdilution; format: cell-based, Escherichia coli
HeLa cells = experiment: in vitro; format: cell-based, human
Protocol: (§1) HeLa cells were grown in Dulbecco's Modified Eagle Medium (DMEM) supplemented with penicillin (10 units/mL), streptomycin (10 units/mL), […] (2 mM), and heat-inactivated fetal bovine serum (10% v/v) at 37° C. in a 5% CO2 atmosphere. HeLa cells were seeded into 384-well plates (500 cells per well) and incubated in DMEM at 37° C. with 5% CO2 for 16 h to allow cells to adhere. The OD570 readings were used to calculate relative growth (%) based on the positive (2 μM Taxol™, 0%) and negative (DMSO, 100%) controls. The cytotoxicity assay was performed in quadruplicate (n=4) and analyzed according to protocol reported previously (Chu Jet al., 2019, J. Am. Chem. Soc., 141:15737-15741).

[1] = tested on: S. aureus farER deletion mutant
S. aureus SH1000 ΔclpP = conditions: clpP deletion
in vitro = format: cell-based, human; conditions: human
Protocol: as §1

[2] = tested on: S. aureus farER deletion mutant with constitutive overexpression of the farER effux system (pALCfarER)
S. aureus or B. subtilis = experiment: Membrane lysis assay (SYTOX fluorescence); format: cell-based; conditions: initial assays, FIG. 4C and 4D
[3] = tested on: Bacillus subtilis, Escherichia coli, and the ESKAPE pathogens; experiment: Antibacterial activity / MIC against screening panel of bacteria; format: cell-based; conditions: panel of Gram-positive and Gram-negative bacteria, FIG. 4A
Description: To identify antibacterial active syn-BNPs, each fraction, containing the mass of a target syn-BNP cyclic peptide against Bacillus subtilis, Escherichia coli, and the ESKAPE pathogens, was screened. ESKAPE pathogens represented the bacteria most commonly associated with antibiotic-resistant nosocomial infections: Enterococcus faecium, Staphylococcus aureus, Klebsiella pneumoniae, Acinetobacter baumannii, Pseudomonas aeruginosa, and Enterobacter cloacae (Boucher H W et al., 2009, Clin. Infect. Dis., 48:1-12).
In the initial screen, semi-pure peptides were spotted on solid growth media seeded with each bacterium. […]
Standard susceptibility assays were performed in the appropriate growth medium in 96-well microtiter plates to determine the MIC by the broth microdilution method in accordance to protocols recommended by Clinical and Laboratory Standards Institute (Weinstein MP, 2012, Methods for dilution antimicrobial susceptibility tests for bacteria that grow aerobically, 9th edition; Clinical and Laboratory Standards Institute, Wayne, Pa.). For polymyxin-supplemented assays, the MIC of polymyxin against a bacterium was first determined (lx MIC). […] The measured MICs were as follows: E. coli DH5α (0.0625 μg/mL), K. pneumoniae and P. aeruginosa (0.15 μg/mL), A. baumannii ([…]), and E. cloacae (2 μg/mL). […]

M. tuberculosis H37Rv = conditions: highest concentration tested 12.5 μg/mL

Work on polymyxin yielded an MIC of polymyxin (P. aeruginosa) of 0.15 µg/mL, an MIC of polymyxin (A. baumannii) of 0.3 μ/mL and an MIC of polymyxin (K. pneumoniae) of 0.15 µg/mL. The MIC of polymyxin (E. coli DH5α) was 0.0625 µg/mL.
For `CCCCCCCCCCCC1CC(=O)N[C@H](Cc2ccccc2)C(=O)N[C@H](CCCN)C(=O)N[C@@H](C(C)C)C(=O)N[C@@H]([C@@H](C)CC)C(=O)N[C@@H](Cc2ccccc2)C(=O)N[C@@H](C)C(=O)N[C@@H](Cc2ccccc2)C(=O)N1` (stereo partly shown) [SyCPA 144, mucilasyn] (HELM PEPTIDE1{A.F.[CCCCCCCCCCCC(CC(=O)[*:2])N[*:1]].[dF].[NCCC[C@@H](N[*:1])C(=O)[*:2]].V.I.F}$PEPTIDE1,PEPTIDE1,1:R1-8:R2$$$V2.0), the “Cytotoxicity (in words)” value (HeLa cells) was “lack of toxicity to human cells in vitro”.
For `CCCCCCCCCCCC1CC(=O)N[C@H](CC(C)C)C(=O)N[C@H](CN)C(=O)N[C@@H](C(C)C)C(=O)N[C@@H](CO)C(=O)N[C@@H]([C@@H](C)CC)C(=O)N1` (stereo partly drawn) [SyCPA 116, collimosyn] (HELM PEPTIDE1{I.[CCCCCCCCCCCC(CC(=O)[*:2])N[*:1]].[dL].[NC[C@@H](N[*:1])C(=O)[*:2]].V.S}$PEPTIDE1,PEPTIDE1,1:R1-6:R2$$$V2.0), the MIC [1] was 8 µg/mL (≈ 11 µM), the “Resistance (MIC)” value (S. aureus SH1000 ΔclpP) was over 128 µg/mL and the “Cytotoxicity (in words)” value (HeLa cells) was “showed human cell line toxicity”. It also gave an IC50 (in vitro) of 11 µg/mL (≈ 15.2 µM) and an MIC [2] of over 64 µg/mL.
In the case of `CCCCCCCCCCCCCC(=O)N[C@@H]1CNC(=O)[C@@H]2CCCN2C(=O)[C@H](Cc2ccccc2)NC(=O)[C@@H](C(C)C)NC(=O)[C@H](C)NC(=O)[C@@H](CCC(N)=O)NC(=O)[C@H]2CCCN2C1=O` [SyCPA 2] (HELM PEPTIDE1{[CCCCCCCCCCCCCC(=O)[*:2]].[O=C([C@@H](CN[*:3])N[*:1])[*:2]].[dP].[dQ].A.[dV].F.P}$PEPTIDE1,PEPTIDE1,2:R3-8:R2$$$V2.0), the “SYTOX or DiSC3(5) fluorescence” value (S. aureus or B. subtilis) is reported as “slight increase in either SYTOX or DiSC3(5) fluorescence”, the Spectrum of activity [3] is reported as “broader Gram-positive activity” and the IC50 (in vitro) is reported as 16 µg/mL (≈ 17.1 µM).
With `CCCCCCCCCCCCCC(=O)N[C@H]1CCCNC(=O)[C@H](CC(C)C)NC(=O)[C@H](CCCNC(=N)N)NC(=O)[C@H]([C@@H](C)CC)NC(=O)[C@@H](CCCNC(=N)N)NC1=O` [SyCPA 63, thurinsyn] (HELM PEPTIDE1{[CCCCCCCCCCCCCC(=O)[*:2]].[Orn].[dR].I.R.L}$PEPTIDE1,PEPTIDE1,2:R3-6:R2$$$V2.0) the MIC (K. pneumoniae) was 8 µg/mL (≈ 9.27 µM), the “Cytotoxicity (in words)” value (HeLa cells) was “minimal HeLa cell cytotoxicity” and the MIC (M. tuberculosis H37Rv) was 6 µg/mL (≈ 6.95 µM).
